Patent US7368279B2, “Three dimensional bioengineered smooth muscle tissue and sphincters and methods therefor” (The Regents of The University of Michigan, priority 2004, dated 2008)
“Also recorded” adds a separate entry of the source.

System: bioengineered IAS rings
Test: Isometric force (contraction/relaxation) of bioengineered IAS rings
Assay type: cell-based, rabbit
Protocol: Excitability and contractility of bioengineered IAS rings was measured using techniques adapted from previous work (Dennis et al., In Vitro Cellular & Developmental Biology Animal 36: 327-335, 2000. Dennis et al., American Journal of Physiology Cell Physiology 280: C288-C295, 2001). The diameter of the sphincter rings was measured and used to calculate cross-sectional area (CSA). The bioengineered sphincters were separated from their molds using forceps (FIG. 1 Panel E) and the minimum ring diameter was measured using a calibrated eyepiece and a 5× or 10× objective lens on an inverted microscope (Zeiss Axiovert 25, Thornwood, N.Y.). The cross section was circular, and therefore the CSA was calculated using the measured diameter. To measure the passive baseline force, the differentiation media in the plate containing the bioengineered sphincter was replaced with 37° C. Krebs solution (NaCl (119 mM), KCl (4.6 mM), NaHCO3 (15 mM), CaCl2 (1.5 mM), MgCl2 (1.2 mM), […], and glucose (11 mM)) and the plate was placed on a heated aluminum platform, which maintained a temperature of 37° C. until the testing was complete. For contractility measurements, one end of the bioengineered sphincter was anchored by a stainless steel pin (10 mm×0.1 mm diameter) to the PDMS substrate within the plate, while another stainless steel pin was bent in the shape of a hook and attached by canning wax to a force transducer (resolution of 1.4 μN and range of 2mN) as previously described (Dennis et al., In Vitro Cellular & Developmental Biology Animal 36: 327-335, 2000, Macpherson et al., J Physiol 500: 523-533, 1997) and as depicted in FIG. 1 (Panels F and G). The bioengineered sphincter was stretched approximately 50% of its resting length using a three-axis micromanipulator. The ring was allowed to sit for 20 minutes in order to reestablish a stable baseline level of force (Pb), which was measured as the average baseline passive force preceding stimulation. All force measurements were collected at 100 samples/second for 60 seconds and recorded using a computer with LabVIEW data acquisition software (National Instruments, Austin, Tex.). A median filter of rank 2 was applied to all raw force data before being stored to minimize digitization noise without causing a phase delay for rapidly changing forces. The peak isometric force (ΔP) was determined by subtracting the Pb from the total force values. Specific force (sΔP) was calculated by dividing ΔP by the CSA. Data analysis was done using LabVIEW and Microsoft Excel software programs. Each measurement was repeated at least three times and the mean value was recorded. Contractions were induced in the rings by the addition of acetylcholine. Dose-response relationships of acetylcholine were investigated in the range of 10^−6M to 10^−10M. Incremental doses of acetylcholine were added after the maximal response of the preceding concentration and the establishment of a new baseline. Relaxation response in the rings was induced by the addition of 8-Bromoadenosine 3′:5′-Cyclic Monophosphate (8-br-cAMP). Maximal relaxation was achieved after approximately 4 minutes and therefore relaxation measurements are collective of four consecutive 1-minute data recordings.

Nc1ncnc2c1nc(Br)n2[C@@H]1O[C@@H]2COP(=O)(O)O[C@H]2[C@H]1O [8-br-cAMP, 8-Bromoadenosine 3′:5′-Cyclic Monophosphate]
relaxation of acetylcholine-induced contraction (10^−5 M 8-br-cAMP added after 10^−6 M acetylcholine, Krebs buffer): rapid relaxation; also recorded: immediate relaxation
ΔP (relaxation response) (10^−5 M 8-br-cAMP, 4 minutes, 0 Ca2+/2 mM EGTA Krebs): −23±4 μN
average ΔP (relaxation from basal tone) (10^−5 M 8-br-cAMP, 4 minutes, Krebs buffer): −16.3±2.0 μN
